The record followed here is PubChem BioAssay (NCI).

SMILES strings stand for the structures.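 Assay format: 96-well plates, 48-hour exposure. At the GI50, growth is halved. Definition used: TGI = concentration required for complete inhibition of growth.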

Among the test systems are OVCAR-3 ovarian; SK-OV-3 ovarian; MCF7 breast; HCT-15 colon; SR leukemia; CCRF-CEM leukemia; A498 renal; MOLT-4 leukemia; U251 CNS; SF-268 CNS.
Test in all cases: NCI-60 cell line screen, 48 h

In the case of `[N-]=[N+]=Nc1nc2ccccc2c(N=[N+]=[N-])c1Cl`, the TGI in the assay with OVCAR-3 ovarian, in the assay with SK-OV-3 ovarian, in the assay with MCF7 breast, in the assay on HCT-15 colon, in the assay with SR leukemia and in the assay on CCRF-CEM leukemia was more than 100 µM throughout. For the same compound, the TGI in the assay on A498 renal is 46.9 µM; in the assay on MOLT-4 leukemia, more than 100 µM; with U251 CNS, more than 100 µM; in the assay with SF-268 CNS, more than 100 µM.
Take `COc1cc2nc(N3CCC[C@H](NC4=CC(=O)c5ccccc5C4=O)C3)nc(N)c2cc1OC`: the GI50 with OVCAR-3 ovarian is 1.89 µM; in the assay on SK-OV-3 ovarian, 2.22 µM; in the assay with MCF7 breast it was 1.61 µM; with HCT-15 colon, 2.01 µM; with SR leukemia, 0.28 µM; in the assay with CCRF-CEM leukemia, 1.79 µM. Moreover, the GI50 with A498 renal is 11.8 µM; in the assay with MOLT-4 leukemia, 2.37 µM; with U251 CNS, 1.65 µM; in the assay on SF-268 CNS, 1.82 µM. Further, the TGI in the assay on OVCAR-3 ovarian came out at 3.43 µM; in the assay on SK-OV-3 ovarian it was 4.22 µM; in the assay with MCF7 breast it was 3.3 µM; in the assay with HCT-15 colon it was 4.86 µM; in the assay with SR leukemia it was 2.94 µM; in the assay with CCRF-CEM leukemia, 5.45 µM. For the same compound, the TGI in the assay on A498 renal stood at 34 µM; in the assay with MOLT-4 leukemia, 5.9 µM; in the assay on U251 CNS, 3.18 µM; with SF-268 CNS, 3.61 µM.
As to `COC(=O)c1c2c(cc3c1CC1(Cc4cc5c(c(C)c4C1)CCC5)C3)CCC2` (stereo not given), the TGI with OVCAR-3 ovarian, in the assay with SK-OV-3 ovarian, in the assay on MCF7 breast, in the assay with HCT-15 colon, in the assay on SR leukemia and in the assay on CCRF-CEM leukemia was more than 100 µM in each case. Besides, the TGI in the assay on A498 renal, in the assay with MOLT-4 leukemia, in the assay with U251 CNS and with SF-268 CNS was more than 100 µM each time.
As to `CC/C=C/c1cc2c(cc1O)CCC1C2CC[C@@]2(C)C1CC[C@@H]2O` (stereo not given in full), the TGI came to 1.6 µM with OVCAR-3 ovarian; 16.7 µM in the assay on SK-OV-3 ovarian; 10.1 µM in the assay with MCF7 breast; 29.9 µM in the assay on HCT-15 colon; 0.817 µM in the assay on SR leukemia; 14.8 µM in the assay with CCRF-CEM leukemia. For the same compound, the TGI was found to be 9.03 µM in the assay with A498 renal, 18.8 µM in the assay with MOLT-4 leukemia, 15.7 µM with U251 CNS and 24.8 µM in the assay on SF-268 CNS.
For the compound `CC(=O)CC(=O)N1CCSC1=S`, the TGI with OVCAR-3 ovarian, in the assay with SK-OV-3 ovarian, in the assay with MCF7 breast, in the assay on HCT-15 colon, in the assay with SR leukemia and in the assay with CCRF-CEM leukemia was more than 10 µM in each case. Also, the TGI in the assay on A498 renal, in the assay on MOLT-4 leukemia, in the assay on U251 CNS and in the assay on SF-268 CNS was more than 10 µM each time.
